# Source: patent publication US12459922B2 (Gilead Sciences, Inc., priority 2022, dated 2025)
# Test system: endogenous cellular STAT1 (phosphorylated at Tyr701) in NCI-H1373 cells
# Assay: Phospho-STAT1 (Tyr701) LANCE Ultra TR-FRET Detection Assay
# Type: cell-based
# Details: Homo sapiens, NCI-H1373, 48 h, phospho-STAT1 (Tyr701) induction, read-out: NH1373 pSTAT1 EC50
row,EC50 [µM],SMILES
1,0.109,"COc1cnc(-c2cc3ccn(CCC[C@H](C)Nc4cn[nH]c(=O)c4C(F)(F)F)c(=O)c3cc2F)nc1NCC(F)F [Example 158, 6-[4-(2,2-difluoroethylamino)-5-methoxy-pyrimidin-2-yl]-7-fluoro-2-[(4S)-4-[[6-oxo-5-(trifluoromethyl)-1H-pyridazin-4-yl]amino]pentyl]isoquinolin-1-one]"
2,0.283,"COc1cnc(-c2cc3ncn(CCC[C@H](C)Nc4cn[nH]c(=O)c4C(F)(F)F)c(=O)c3cc2F)nc1NCC(F)F [Example 159, 7-[4-(2,2-difluoroethylamino)-5-methoxy-pyrimidin-2-yl]-6-fluoro-3-[(4S)-4-[[6-oxo-5-(trifluoromethyl)-1H-pyridazin-4-yl]amino]pentyl]quinazolin-4-one]"
3,0.662,"N#C[C@@H](CCCn1ccc2cc(-c3ncc(C(F)(F)F)cn3)c(F)cc2c1=O)Nc1cn[nH]c(=O)c1C(F)(F)F [Example 162, (2R)-5-[7-fluoro-1-oxo-6-[5-(trifluoromethyl)pyrimidin-2-yl]-2-isoquinolyl]-2-[[6-oxo-5-(trifluoromethyl)-1H-pyridazin-4-yl]amino]pentanenitrile]"
4,0.159,O=c1[nH]ncc(N[C@@H](CO)CCCn2ccc3cc(-c4ncc(C(F)F)cn4)c(F)cc3c2=O)c1C(F)(F)F [Example 165]
5,0.128,"O=c1[nH]ncc(N[C@@H](CO)CCCn2ccc3cc(-c4ncc(Cl)cn4)c(F)cc3c2=O)c1C(F)(F)F [Example 166, 6-(5-chloropyrimidin-2-yl)-7-fluoro-2-[(4R)-5-hydroxy-4-[[6-oxo-5-(trifluoromethyl)-1H-pyridazin-4-yl]amino]pentyl]isoquinolin-1-one]"
6,0.257,"C#C[C@H](CCCn1ccc2cc(-c3ncc(C(F)(F)F)cn3)c(F)cc2c1=O)Nc1cn[nH]c(=O)c1C(F)(F)F [Example 171, 7-fluoro-2-[(4S)-4-[[6-oxo-5-(trifluoromethyl)-1H-pyridazin-4-yl]amino]hex-5-ynyl]-6-[5-(trifluoromethyl)pyrimidin-2-yl]isoquinolin-1-one]"
7,0.0142,"[2H]C([2H])([2H])OC[C@@H](CCCn1ccc2cc(-c3ncc(C(F)(F)F)cn3)c(F)cc2c1=O)Nc1cn[nH]c(=O)c1C(F)(F)F [Example 181, (R)-7-fluoro-2-(5-(methoxy-d3)-4-((6-oxo-5-(trifluoromethyl)-1,6-dihydropyridazin-4-yl)amino)pentyl)-6-(5-(trifluoromethyl)pyrimidin-2-yl)isoquinolin-1(2H)-one]"
8,0.0207,"C[C@@H](CCCn1ccc2cc(-c3ncc(C(F)(F)F)c(N4CCC4)n3)c(F)cc2c1=O)Nc1cn[nH]c(=O)c1C(F)(F)F [Example 187, (S)-6-(4-(azetidin-1-yl)-5-(trifluoromethyl)pyrimidin-2-yl)-7-fluoro-2-(4-((6-oxo-5-(trifluoromethyl)-1,6-dihydropyridazin-4-yl)amino)pentyl)isoquinolin-1(2H)-one]"

# The next lines start with the compound.
row,SMILES,EC50 [µM]
1,"N#CC[C@@H](CCCn1ccc2cc(-c3ncc(C(F)(F)F)cn3)c(F)cc2c1=O)Nc1cn[nH]c(=O)c1C(F)(F)F [Example 160, (3R)-6-[7-fluoro-1-oxo-6-[5-(trifluoromethyl)pyrimidin-2-yl]-2-isoquinolyl]-3-[[6-oxo-5-(trifluoromethyl)-1H-pyridazin-4-yl]amino]hexanenitrile]",0.219
2,"CC#C[C@@H](CCCn1ccc2cc(-c3ncc(C(F)(F)F)cn3)c(F)c(F)c2c1=O)Nc1cn[nH]c(=O)c1C(F)(F)F [Example 161, 7,8-difluoro-2-[(4R)-4-[[6-oxo-5-(trifluoromethyl)-1H-pyridazin-4-yl]amino]hept-5-ynyl]-6-[5-(trifluoromethyl)pyrimidin-2-yl]isoquinolin-1-one]",0.0287
3,"O=c1[nH]ncc(N[C@@H](CO)CCCn2cnc3cc(-c4ncc(C(F)(F)F)cn4)c(F)cc3c2=O)c1C(F)(F)F [Example 164, 6-fluoro-3-[(4R)-5-hydroxy-4-[[6-oxo-5-(trifluoromethyl)-1H-pyridazin-4-yl]amino]pentyl]-7-[5-(trifluoromethyl)pyrimidin-2-yl]quinazolin-4-one]",0.219
4,"Nc1nc(-c2cc3ccn(CCC[C@H](CO)Nc4cn[nH]c(=O)c4C(F)(F)F)c(=O)c3cc2F)ccc1C(F)(F)F [Example 167, 6-[6-amino-5-(trifluoromethyl)pyridin-2-yl]-7-fluoro-2-[(4R)-5-hydroxy-4-[[6-oxo-5-(trifluoromethyl)-1H-pyridazin-4-yl]amino]pentyl]isoquinolin-1-one]",0.103
5,"Cc1nnc([C@@H](CCCn2ccc3cc(-c4ncc(C(F)(F)F)cn4)c(F)cc3c2=O)Nc2cn[nH]c(=O)c2C(F)(F)F)o1 [Example 169, 7-fluoro-2-[(4R)-4-(5-methyl-1,3,4-oxadiazol-2-yl)-4-[[6-oxo-5-(trifluoromethyl)-1H-pyridazin-4-yl]amino]butyl]-6-[5-(trifluoromethyl)pyrimidin-2-yl]isoquinolin-1-one]",0.0619
6,"C#C[C@@H](CCCn1ccc2cc(-c3ncc(C(F)(F)F)cn3)c(F)cc2c1=O)Nc1cn[nH]c(=O)c1C(F)(F)F [Example 170, 7-fluoro-2-[(4R)-4-[[6-oxo-5-(trifluoromethyl)-1H-pyridazin-4-yl]amino]hex-5-ynyl]-6-[5-(trifluoromethyl)pyrimidin-2-yl]isoquinolin-1-one]",0.195
7,"CN(CCCn1ccc2cc(-c3ncc(C(F)(F)F)cn3)c(F)cc2c1=O)Nc1cn[nH]c(=O)c1C(F)(F)F [Example 172, 7-fluoro-2-(3-(1-methyl-2-(6-oxo-5-(trifluoromethyl)-1,6-dihydropyridazin-4-yl)hydrazineyl)propyl)-6-(5-(trifluoromethyl)pyrimidin-2-yl)isoquinolin-1(2H)-one]",1.01
8,"C[C@@H](CCCn1ccc2cc(-n3cc(C(F)(F)F)cn3)ccc2c1=O)Nc1cn[nH]c(=O)c1C(F)(F)F [Example 173, (S)-2-(4-((6-oxo-5-(trifluoromethyl)-1,6-dihydropyridazin-4-yl)amino)pentyl)-6-(4-(trifluoromethyl)-1H-pyrazol-1-yl)isoquinolin-1(2H)-one]",0.27
9,"C[C@@H]1C[C@@H](CCCn2ccc3cc(-c4ncc(C(F)(F)F)cn4)c(F)cc3c2=O)N(c2cn[nH]c(=O)c2C(F)(F)F)C1 [Example 174, 7-fluoro-2-(3-((2R,4R)-4-methyl-1-(6-oxo-5-(trifluoromethyl)-1,6-dihydropyridazin-4-yl)pyrrolidin-2-yl)propyl)-6-(5-(trifluoromethyl)pyrimidin-2-yl)isoquinolin-1(2H)-one]",0.287
10,"COc1cnc(-c2cc3ccn(CCC[C@@H]4C[C@@H](C)CN4c4cn[nH]c(=O)c4C(F)(F)F)c(=O)c3cc2F)nc1N [Example 175, 6-(4-amino-5-methoxypyrimidin-2-yl)-7-fluoro-2-[3-[(2R,4R)-4-methyl-1-[6-oxo-5-(trifluoromethyl)-1H-pyridazin-4-yl]pyrrolidin-2-yl]propyl]isoquinolin-1-one]",0.0575
11,"C[C@@H]1C[C@@H](CCCn2cnc3cc(-c4ncc(C(F)(F)F)cn4)c(F)cc3c2=O)N(c2cn[nH]c(=O)c2C(F)(F)F)C1 [Example 176, 6-fluoro-3-[3-[(2R,4R)-4-methyl-1-[6-oxo-5-(trifluoromethyl)-1H-pyridazin-4-yl]pyrrolidin-2-yl]propyl]-7-[5-(trifluoromethyl)pyrimidin-2-yl]quinazolin-4-one]",0.186
12,"COc1cnc(-c2cc3ncn(CCC[C@@H]4C[C@@H](C)CN4c4cn[nH]c(=O)c4C(F)(F)F)c(=O)c3cc2F)nc1N [Example 177, 7-(4-amino-5-methoxypyrimidin-2-yl)-6-fluoro-3-[3-[(2R,4R)-4-methyl-1-[6-oxo-5-(trifluoromethyl)-1H-pyridazin-4-yl]pyrrolidin-2-yl]propyl]quinazolin-4-one]",0.537
13,"Nc1nc(-c2cc3ccn(CC[C@H]4CCC[C@@H]4Nc4cn[nH]c(=O)c4C(F)(F)F)c(=O)c3cc2F)ncc1C(F)(F)F [Example 178, 6-(4-amino-5-(trifluoromethyl)pyrimidin-2-yl)-7-fluoro-2-(2-((1R,2S)-2-((6-oxo-5-(trifluoromethyl)-1,6-dihydropyridazin-4-yl)amino)cyclopentyl)ethyl)isoquinolin-1(2H)-one]",0.0018
14,"O=c1[nH]ncc(N[C@H]2CCC[C@@H]2CCn2ccc3cc(-c4ncc(C(F)(F)F)cn4)c(F)cc3c2=O)c1C(F)(F)F [Example 179, 7-fluoro-2-(2-((1R,2S)-2-((6-oxo-5-(trifluoromethyl)-1,6-dihydropyridazin-4-yl)amino)cyclopentyl)ethyl)-6-(5-(trifluoromethyl)pyrimidin-2-yl)isoquinolin-1(2H)-one]",0.00403
15,"CCOC[C@@H](CCCn1ccc2cc(-c3ncc(C(F)(F)F)cn3)c(F)cc2c1=O)Nc1cn[nH]c(=O)c1C(F)(F)F [Example 180, (R)-2-(5-ethoxy-4-((6-oxo-5-(trifluoromethyl)-1,6-dihydropyridazin-4-yl)amino)pentyl)-7-fluoro-6-(5-(trifluoromethyl)pyrimidin-2-yl)isoquinolin-1(2H)-one]",0.00189
16,"O=c1[nH]ncc(N2Cc3ccccc3[C@H]2CCCn2ccc3cc(-c4ncc(C(F)(F)F)cn4)c(F)cc3c2=O)c1C(F)(F)F [Example 182, 7-fluoro-2-[3-[(1R)-2-[6-oxo-5-(trifluoromethyl)-1H-pyridazin-4-yl]isoindolin-1-yl]propyl]-6-[5-(trifluoromethyl)pyrimidin-2-yl]isoquinolin-1-one]",0.0825
17,"O=c1[nH]ncc(N[C@H]2CCC[C@@H](Cn3ccc4cc(-c5ncc(C(F)(F)F)cn5)c(F)cc4c3=O)C2)c1C(F)(F)F [Example 183, 7-fluoro-2-[[(1R,3S)-3-[[6-oxo-5-(trifluoromethyl)-1H-pyridazin-4-yl]amino]cyclohexyl]methyl]-6-[5-(trifluoromethyl)pyrimidin-2-yl]isoquinolin-1-one]",0.00639
18,"COc1cnc(-c2cc3ccn(CCC[C@H](C)Nc4cn[nH]c(=O)c4C(F)(F)F)c(=O)c3cc2F)nc1N1CCC1 [Example 186, (S)-6-(4-(azetidin-1-yl)-5-methoxypyrimidin-2-yl)-7-fluoro-2-(4-((6-oxo-5-(trifluoromethyl)-1,6-dihydropyridazin-4-yl)amino)pentyl)isoquinolin-1(2H)-one]",0.0661
